{
  "source": "patent US10335382B2",
  "about": "“Use of hydrogen sulfide synthesis inhibitors for cancer therapy” (THE BOARD OF REGENTS OF THE UNIVERSITY OF TEXAS SYSTEM, priority 2013, dated 2019)",
  "key": {"[1]": {"test_system": "patient-derived colon cancer xenografts", "assay": "Patient-derived tumor xenograft (PDTX) growth", "format": "in vivo, nu/nu mice", "settings": "AOAA 9 mg/kg/day s.c.", "experimental": "(§1) Nu/nu Balb/C female mice (8-10 weeks) were injected subcutaneously in the right and left dorsum (10^6 cells/side with HCT-116 cells). One week later, the mice were randomized and subcutaneous injections of phosphate buffered saline (PBS) or AOAA (9 mg/kg/day) were performed 6 days/week. Tumor diameters were measured transcutaneously using calipers and tumor volumes were calculated using the formula V=(π/6)hd^2. T-test comparisons of the tumor volumes and final weights at harvest were performed. Xenotrials with patient-derived xenografts (PTX) were performed on nu/nu mice implanted subcutaneously with a piece of Passage 2 tumor measuring 2-5 mm^3 each. When a small palpable tumor was evident at 7-10 days, the mice with tumor take were randomized and subjected to subcutaneous injection of vehicle or AOAA (9 mg/kg/day) 6 days/week. Specimens were fixed with 10% formalin and embedded in paraffin. 5 μm sections were stained with hematoxylin and eosin. Each in vivo experiment was repeated at least twice."}, "[2]": {"test_system": "peritumor microvessel blood flow", "assay": "Tumor microvascular blood flow (laser Doppler)", "format": "in vivo, mice", "settings": "intratumoral injection; AOAA 9 mg/kg, L-cysteine 1 mg/kg", "experimental": "FIG. 6. L-Cysteine increases, while AOAA reduces microvessel blood flow in tumor bearing mice. Tumor bearing mice were anesthetized by i.p. injection of ketamine-xylazine and a laser Doppler (PeriFlux system 5000) was placed on top of the tumor for microvessel blood flow measurements. After a stabilization period, L-Cys or AOAA were injected subcutaneously in proximity of the tumor. […] Data represent mean±SEM of n=6 determinations.\nSkin microvascular blood flow was measured using a PeriFlux 5000 laser-Doppler flowmeter. Mice bearing PTX were anesthetized by ketamine-xylazine (i.p.). The laser-Doppler probe was placed on top of the tumors and a stable basal signal was recorded. Changes in the subcutaneous microcirculatory perfusion were detected following intratumoral injections of either L-cysteine (1 mg/kg) or AOAA (9 mg/kg)."}, "[3]": {"test_system": "HCT116 tumor xenografts", "assay": "HCT116 tumor xenograft in nude mice", "format": "in vivo, Nu/nu Balb/C female mice", "settings": "AOAA 9 mg/kg/day s.c.", "experimental": "as §1\nTissue preparation, immunostaining of CD31, and evaluation of microvessel density with the Chakley reticle was performed as described (Chao et al. (1996) Cancer Res. 56:4811-19).\nNu/nu Balb/c female mice (8-10 weeks) were injected subcutaneously in the right and left dorsum (10^6 cells/side with HCT116 cells). One week later, the mice were randomized and subcutaneous injection of phosphate buffered saline (PBS control) or YD2-51 (0.1, 0.5 or 1 mg/kg) was performed 6 days/week. Tumor volumes and final weights at harvest (post-tumor injection Day 28) were performed and tumor weight/animal weight ratios calculated."}, "[4]": {"test_system": "human endothelial cells (EAhy926)", "assay": "Endothelial cell migration in co-culture with HCT116", "format": "cell-based", "settings": "4 hours at 37° C.", "experimental": "FIG. 3. […] (A, B) The lentiviral shRNA vectors targeting CBS (shCBS) and CSE (shCSE) were transfected into HCT116 cells. A non-targeting sequence was used as control (shNT). […] Following CBS and CSE silencing, cells were seeded at the density of 3000 cells/well in xCELLigence plates and proliferation was monitored for 36 hours. […] The NCM356 cells were infected overnight with a CBS expressing adenovirus (Ad-CBS, 10 multiplicity of infection (MOI)) or its control, a green fluorescent protein (Ad-GFP). The culture media was then replaced and cells were seeded in XCelligence plates at 3000 cells/well. Cell proliferation was then measured real-time over 36 hours. […] (H, I) The effect of AOAA and NaHS was also tested on HCT116 cell migration (H) and invasion (I). […]\nCellular migration and invasion assays were performed as described (Chao et al. (1996) Cancer Res. 56:4811-19). […] Migrated and invaded cells were then fixed in Carson's fixative, stained in 0.33% toluidine blue and quantified by visual counting. For the HCT116-EAhy926 co-culture experiment, the cancer cell line was grown to confluence in the bottom wells of the transwell chambers and then endothelial cell migration was assessed (Coletta et al. (2012) Proc Natl Acad Sci USA. 109:9161-66)."}},
  "note": "Entries after “also recorded” stand apart in the source; their conditions may differ.",
  "data": [
    {"molecule": "NOCC(=O)O", "note": "[AOAA, aminooxyacetic acid]", "values": [
      {"measurement": "PDTX growth, second patient with stage II disease and mutant Kras allele", "setting": "[1]", "value": "growth inhibitory effects"},
      {"measurement": "rate of PDTX growth, patient with stage III disease and Kras mutation", "setting": "[1]", "value": "reduced rate"},
      {"measurement": "peritumor / skin microvessel blood flow", "setting": "[2]", "value": "significantly reduced; also recorded: marked decrease"},
      {"measurement": "rate of HCT116 xenograft growth", "setting": "[3]; 6 days/week", "value": "significantly slowed"},
      {"measurement": "tumor size and weight at harvest", "setting": "[3]; 6 days/week", "value": "reduced size and weight"},
      {"measurement": "plasma concentration of H2S", "setting": "[3]; tumor-bearing mice", "value": "reduction"},
      {"measurement": "HCT116-induced endothelial cell migration", "setting": "[4]", "value": "reduced"}
    ]}
  ]
}
